For 20 molecules, IC50 results are on record in patent US20220144848A1, “SUBSTITUTED OXOPYRIDINE DERIVATIVES” (Bayer Aktiengesellschaft, priority 2018, published 2022).

Assay [1] has as its target T1, human factor XIa (Homo sapiens, UniProt P03951).
T1 construct: purchased Kordia
The assay is described as follows: Measurement of FXIa inhibition (fluorogenic peptide substrate Boc-Glu(OBzl)-Ala-Arg-AMC). It is filed as biochemical. Conditions: factor XIa from Kordia, 15 min preincubation, 30 min at 22° C., fluorescence; some as mean values from multiple determinations. How it is done: The factor XIa inhibition of the substances according to the invention is determined using a biochemical test system which utilizes the reaction of a peptidic factor XIa substrate to determine the enzymatic activity of human factor XIa. Here, factor XIa cleaves from the peptidic factor XIa substrate the C-terminal aminomethylcoumarin (AMC), the fluorescence of which is measured. The determinations are carried out in microtitre plates.
Test substances are dissolved in dimethyl sulfoxide and serially diluted in dimethyl sulfoxide (3000 μM to 0.0078 μM; resulting final concentrations in the test: 50 μM to 0.00013 μM). In each case 1 μl of the diluted substance solutions is placed into the wells of white microtitre plates from Greiner (384 wells). 20 μl of assay buffer (50 mM of Tris/HCl pH 7.4; 100 mM of sodium chloride; 5 mM of calcium chloride; 0.1% of bovine serum albumin) and 20 μl of factor XIa from Kordia (0.45 nM in assay buffer) are then added successively. After 15 min of incubation, the enzyme reaction is started by addition of 20 μl of the factor XIa substrate Boc-Glu(OBzl)-Ala-Arg-AMC dissolved in assay buffer (10 μM in assay buffer) from Bachem, the mixture is incubated at room temperature (22° C.) for 30 min and fluorescence is then measured (excitation: 360 nm, emission: 460 nm). The measured emissions of the test batches with test substance are compared to those of control batches without test substance (only dimethyl sulfoxide instead of test substance in dimethyl sulfoxide), and IC50 values are calculated from the concentration/activity relationships.

For assay [2], the target named is T2, human plasma kallikrein (Homo sapiens, UniProt P03952).
T2 construct: purchased Kordia
T2 sequence (P03952 391-638 limits assumed): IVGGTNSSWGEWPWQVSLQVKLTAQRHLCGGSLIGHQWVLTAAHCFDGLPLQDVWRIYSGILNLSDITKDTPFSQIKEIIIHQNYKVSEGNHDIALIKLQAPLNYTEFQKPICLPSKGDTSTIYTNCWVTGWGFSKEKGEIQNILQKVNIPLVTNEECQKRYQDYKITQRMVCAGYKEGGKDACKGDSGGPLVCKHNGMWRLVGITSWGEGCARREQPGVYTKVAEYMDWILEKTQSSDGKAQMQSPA
T2 sequence (P03952 20-390 partner limits assumed): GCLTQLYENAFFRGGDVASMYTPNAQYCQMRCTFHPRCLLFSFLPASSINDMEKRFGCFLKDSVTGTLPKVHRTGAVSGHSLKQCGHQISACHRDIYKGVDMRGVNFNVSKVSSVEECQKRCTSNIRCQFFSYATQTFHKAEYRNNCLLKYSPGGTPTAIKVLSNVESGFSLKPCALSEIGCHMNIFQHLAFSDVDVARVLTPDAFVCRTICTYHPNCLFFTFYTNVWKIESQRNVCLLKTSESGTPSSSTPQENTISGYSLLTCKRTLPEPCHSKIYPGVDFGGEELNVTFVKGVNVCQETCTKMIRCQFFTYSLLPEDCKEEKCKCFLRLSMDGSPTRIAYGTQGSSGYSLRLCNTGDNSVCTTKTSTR
The experiment in a line: Determination of the plasma kallikrein activity (fluorogenic peptide substrate H-Pro-Phe-Arg-AMC). Format: biochemical. Conditions: plasma kallikrein from Kordia, 15 min preincubation, 30 min at 22° C., fluorescence; some as mean values from multiple determinations. How it is done: To determine the plasma kallikrein inhibition of the substances according to the invention, a biochemical test system is used which utilizes the reaction of a peptidic plasma kallikrein substrate to determine the enzymatic activity of human plasma kallikrein. Here, plasma kallikrein cleaves from the peptidic plasma kallikrein substrate the C-terminal aminomethylcoumarin (AMC), the fluorescence of which is measured. The determinations are carried out in microtitre plates.
Test substances are dissolved in dimethyl sulfoxide and serially diluted in dimethyl sulfoxide (3000 μM to 0.0078 μM; resulting final concentrations in the test: 50 μM to 0.00013 μM). In each case 1 μl of the diluted substance solutions is placed into the wells of white microtitre plates from Greiner (384 wells). 20 μl of assay buffer (50 mM Tris/HCl pH 7.4; 100 mM sodium chloride solution; 5 mM of calcium chloride solution; 0.1% of bovine serum albumin) and 20 μl of plasma kallikrein from Kordia (0.6 nM in assay buffer) are then added successively. After 15 min of incubation, the enzyme reaction is started by addition of 20 μl of the substrate H-Pro-Phe-Arg-AMC dissolved in assay buffer (10 μM in assay buffer) from Bachem, the mixture is incubated at room temperature (22° C.) for 30 min and fluorescence is then measured (excitation: 360 nm, emission: 460 nm). The measured emissions of the test batches with test substance are compared to those of control batches without test substance (only dimethyl sulfoxide instead of test substance in dimethyl sulfoxide), and IC50 values are calculated from the concentration/activity relationships. Activity data from this test are listed in Table B below (some as mean values from multiple independent individual determinations): […]

Molecules are shown by their SMILES.

T1 sequence (P03951 388-625 limits assumed): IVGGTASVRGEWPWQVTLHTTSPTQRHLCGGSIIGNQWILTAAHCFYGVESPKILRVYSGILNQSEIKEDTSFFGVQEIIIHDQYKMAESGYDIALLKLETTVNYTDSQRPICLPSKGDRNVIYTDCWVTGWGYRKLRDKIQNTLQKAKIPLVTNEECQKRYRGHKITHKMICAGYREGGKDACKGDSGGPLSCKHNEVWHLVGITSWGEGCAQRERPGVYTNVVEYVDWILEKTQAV
T1 sequence (P03951 19-387 partner limits assumed): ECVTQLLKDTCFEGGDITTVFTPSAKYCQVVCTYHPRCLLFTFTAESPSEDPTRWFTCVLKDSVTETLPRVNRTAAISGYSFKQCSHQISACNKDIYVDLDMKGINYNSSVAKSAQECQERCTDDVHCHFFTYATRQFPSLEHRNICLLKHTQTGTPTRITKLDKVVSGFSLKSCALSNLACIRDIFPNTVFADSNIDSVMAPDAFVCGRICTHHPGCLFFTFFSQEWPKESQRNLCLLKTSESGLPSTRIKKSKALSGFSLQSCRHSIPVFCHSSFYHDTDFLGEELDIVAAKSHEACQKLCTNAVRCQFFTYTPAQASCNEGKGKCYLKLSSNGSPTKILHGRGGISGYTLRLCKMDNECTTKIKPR

A word on the IC50: it is the midpoint of a concentration-inhibition curve. The low end stands for higher potency, the high end for lower potency. `CC1Cc2ccc(Cl)cc2-c2cc(=O)n(C(C[C@@H]3COCCO3)C(=O)Nc3ccc(C(N)=O)cc3)cc2CO1` (mixture of isomers) [Example 9, 4-({2-(11-Chloro-7-methyl-2-oxo-7,8-dihydro-2H-[3]benzoxocino[5,6-c]pyridin-3(5H)-yl)-3-[(2R)-1,4-dioxan-2-yl]propanoyl}amino)benzamide]: the IC50 is 4.5 nM in assay [1] and 260 nM in assay [2].
Turning to `NC(=O)c1ccc(NC(=O)[C@H](C[C@@H]2CCCCO2)n2cc3c(cc2=O)-c2cc(Cl)ccc2C[C@@H](CO)OC3)cc1F` (single isomer, unassigned) [Example 33], the IC50 stood at 9.1 nM in assay [1] and 480 nM in assay [2].
The like results for `COCCC(C(=O)Nc1ccn2ncnc2c1)n1cc2c(cc1=O)-c1cc(Cl)ccc1CC(C(F)(F)F)OC2` (mixture of isomers) [Example 64, 2-[11-Chloro-2-oxo-7-(trifluoromethyl)-7,8-dihydro-2H-[3]benzoxocino[5,6-c]pyridin-3(5H)-yl]-4-methoxy-N-([1,2,4]triazolo[1,5-a]pyridin-7-yl)butanamide] were, in that order, 42 nM and 580 nM.
Turning to `C[C@@H]1Cc2ccc(Cl)cc2-c2cc(=O)n([C@@H](C[C@@H]3COCCO3)C(=O)Nc3ccc(C(N)=O)c(F)c3)cc2CO1` (single isomer, unassigned) [Example 8], the figures for the IC50 in assay [1] and in assay [2] were 6.6 nM and 320 nM, respectively.
Take `CO[C@@H](C)C[C@@H](C(=O)Nc1ccc(C(N)=O)cc1)n1cc2c(cc1=O)-c1cc(Cl)ccc1C[C@@H](C(F)(F)F)OC2` (single isomer, unassigned) [Example 67]: the results for the half-inhibitory concentration (IC50) in assay [1] and in assay [2] were 3.5 nM and 220 nM, respectively.
For `NC(=O)c1ccc(NC(=O)C(C[C@@H]2CCCCO2)n2cc3c(cc2=O)-c2cc(Cl)ccc2CC(C(F)(F)F)OC3)cc1F` (mixture of isomers) [Example 50, 4-({2-[11-Chloro-2-oxo-7-(trifluoromethyl)-7,8-dihydro-2H-[3]benzoxocino[5,6-c]pyridin-3(5H)-yl]-3-[(2S)-tetrahydro-2H-pyran-2-yl]propanoyl}amino)-2-fluorobenzamide], the IC50 in assay [1] was determined as 14 nM; in assay [2], 1100 nM.
The like results for `CC(C)[C@@H]1Cc2ccc(Cl)cc2-c2cc(=O)n([C@@H](C[C@@H]3COCCO3)C(=O)Nc3ccc(C(N)=O)cc3)cc2CO1` (single isomer, unassigned) [Example 43] were, in that order, 1.7 nM and 380 nM.
Consider `CC(C)C1Cc2ccc(Cl)cc2-c2cc(=O)n(C(C[C@@H]3COCCO3)C(=O)Nc3ccc(C(N)=O)cc3)cc2CO1` (mixture of isomers) [Example 42, 4-({2-(11-Chloro-7-isopropyl-2-oxo-7,8-dihydro-2H-[3]benzoxocino[5,6-c]pyridin-3(5H)-yl)-3-[(2R)-1,4-dioxan-2-yl]propanoyl}amino)benzamide], for which the values for the 50% inhibitory concentration (IC50) in assay [1] and in assay [2] were 3.6 nM and 810 nM, respectively.
On the same counts, the results for `C[C@@H]1Cc2ccc(Cl)cc2-c2cc(=O)n([C@@H](C[C@@H]3COCCO3)C(=O)Nc3ccc4nn(C)nc4c3)cc2CO1` (single isomer, unassigned) [Example 12] are 3.3 nM and 42 nM.
Take `C[C@@H]1Cc2ccc(Cl)cc2-c2cc(=O)n([C@@H](CCOC(C)(C)C)C(=O)Nc3ccn4ncnc4c3)cc2CO1` (single isomer, unassigned) [Example 26]: the values for the IC50 in assay [1] and in assay [2] were 28 nM and 170 nM, respectively.
Consider `NC(=O)c1ccc(NC(=O)[C@H](C[C@@H]2CCCCO2)n2cc3c(cc2=O)-c2cc(Cl)ccc2C[C@@H](CO)OC3)cc1` (single isomer, unassigned) [Example 35], for which the figures for the IC50 in assay [1] and in assay [2] were 2.1 nM and 170 nM, respectively.
The like results for `CC1Cc2ccc(Cl)cc2-c2cc(=O)n(C(C[C@@H]3COCCO3)C(=O)Nc3ccc4nn(C)nc4c3)cc2CO1` (mixture of isomers) [Example 11, 2-(11-Chloro-7-methyl-2-oxo-7,8-dihydro-2H-[3]benzoxocino[5,6-c]pyridin-3(5H)-yl)-3-[(2R)-1,4-dioxan-2-yl]-N-(2-methyl-2H-benzotriazol-5-yl)propanamide] were, in that order, 19 nM and 190 nM.
On the same counts, the results for `COCCC(C(=O)Nc1ccc(C(N)=O)cc1)n1cc2c(cc1=O)-c1cc(Cl)ccc1CC(C(F)(F)F)OC2` (mixture of isomers) [Example 62, 4-({2-[11-Chloro-2-oxo-7-(trifluoromethyl)-7,8-dihydro-2H-[3]benzoxocino[5,6-c]pyridin-3(5H)-yl]-4-methoxybutanoyl}amino)benzamide] are 8.1 nM and 420 nM.
In the case of `C[C@@H]1Cc2ccc(Cl)cc2-c2cc(=O)n([C@@H](C[C@@H]3CCCCO3)C(=O)Nc3ccc(C(N)=O)cc3)cc2CO1` (single isomer, unassigned) [Example 6], the results for the IC50 in assay [1] and in assay [2] were 1.4 nM and 140 nM, respectively.
The like results for `NC(=O)c1ccc(NC(=O)[C@H](C[C@@H]2CCCCO2)n2cc3c(cc2=O)-c2cc(Cl)ccc2C[C@@H](C(F)(F)F)OC3)cc1` (single isomer, unassigned) [Example 55] were, in that order, 0.5 nM and 91 nM.
On the same counts, the results for `CC1Cc2ccc(Cl)cc2-c2cc(=O)n(C(CCOC(C)(C)C)C(=O)Nc3ccc(C(N)=O)cc3)cc2CO1` (mixture of isomers) [Example 23, 4-{[4-tert-Butoxy-2-(11-chloro-7-methyl-2-oxo-7,8-dihydro-2H-[3]benzoxocino[5,6-c]pyridin-3(5H)-yl)butanoyl]amino}benzamide] are 22 nM and 410 nM.
For the molecule `CC[C@@H](C(=O)Nc1ccc(C(N)=O)c(F)c1)n1cc2c(cc1=O)-c1cc(Cl)ccc1C[C@@H](C)O[C@H]2C` (single isomer, unassigned) [Example 71], the 50% inhibitory concentration (IC50) came out at 3.5 nM in assay [1] and 225 nM in assay [2].
`CC(C)C1Cc2ccc(Cl)cc2-c2cc(=O)n(C(C[C@@H]3COCCO3)C(=O)Nc3ccc4nn(C)nc4c3)cc2CO1` (mixture of isomers) [Example 44, 2-(11-Chloro-7-isopropyl-2-oxo-7,8-dihydro-2H-[3]benzoxocino[5,6-c]pyridin-3(5H)-yl)-3-[(2R)-1,4-dioxan-2-yl]-N-(2-methyl-2H-benzotriazol-5-yl)propanamide]: the IC50 in assay [1] came to 49 nM; in assay [2], 1600 nM.
The like results for `COCCC(C(=O)Nc1ccc(C(N)=O)c(F)c1)n1cc2c(cc1=O)-c1cc(Cl)ccc1CC(C(F)(F)F)OC2` (mixture of isomers) [Example 60, 4-({2-[11-Chloro-2-oxo-7-(trifluoromethyl)-7,8-dihydro-2H-[3]benzoxocino[5,6-c]pyridin-3(5H)-yl]-4-methoxybutanoyl}amino)-2-fluorobenzamide] were, in that order, 26 nM and 780 nM.
On the same counts, the results for `NC(=O)c1ccc(NC(=O)C(C[C@@H]2CCCCO2)n2cc3c(cc2=O)-c2cc(Cl)ccc2CC(CO)OC3)cc1F` (mixture of isomers) [Example 32, 4-{2-[11-Chloro-7-(hydroxymethyl)-2-oxo-7,8-dihydro-2H-[3]benzoxocino[5,6-c]pyridin-3(5H)-yl]-3-[(2S)-tetrahydro-2H-pyran-2-yl]propanamido}-2-fluorobenzamide] are 30 nM and 1300 nM.
